# Test results published in PubChem BioAssay (NCI).
#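 In this assay, cells in 96-well plates receive the compound at five concentrations for 48 hours. Endpoints are linearly interpolated between the surrounding concentrations. GI50 is the concentration that inhibits growth by half. Definition used: TGI = concentration required for complete inhibition of growth.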
# Key:
# Test in all cases: DTP human tumour cell line panel, 48 h
# [1] = test system: SNB-75 CNS
# [2] = test system: EKVX NSCLC
# [3] = test system: MALME-3M melanoma
# [4] = test system: CCRF-CEM leukemia
# [5] = test system: NCI-H460 lung
# [6] = test system: RPMI-8226 leukemia
# [7] = test system: MCF7 breast
# [8] = test system: HOP-92 NSCLC
# [9] = test system: TK-10 renal
# [10] = test system: ACHN renal
SMILES,GI50 [1],TGI [1],GI50 [2],TGI [2],GI50 [3],TGI [3],GI50 [4],TGI [4],GI50 [5],TGI [5],GI50 [6],TGI [6],GI50 [7],TGI [7],GI50 [8],GI50 [9],TGI [9],GI50 [10],TGI [10],TGI [8]
C[C@@H]1CC[C@H]2C(COC/C=C/COCC3=C(C(F)(F)F)O[C@@H]4O[C@@]5(C)CC[C@H]6[C@H](C)CC[C@@H]3[C@@]46OO5)=C(C(F)(F)F)O[C@@H]3O[C@@]4(C)CC[C@@H]1[C@]32OO4,12.7 µM,> 100 µM,0.072 µM,> 100 µM,< 0.01 µM,0.0445 µM,0.0148 µM,> 38.4 µM,0.0226 µM,> 100 µM,< 0.01 µM,> 100 µM,0.028 µM,> 58.3 µM,< 0.032 µM,0.036 µM,> 100 µM,0.0468 µM,0.753 µM,
CC(C)(C)C1CCC2(CC1)CCN(CCCN1CCOCC1)CC2,,> 52.4 µM,,> 100 µM,,39.4 µM,,> 100 µM,,> 100 µM,,63.8 µM,,> 100 µM,,,> 100 µM,,> 100 µM,> 63.9 µM
Cn1cnc([N+](=O)[O-])c1SCC(=O)O,,> 100 µM,,> 100 µM,,> 100 µM,,> 100 µM,,> 100 µM,,> 100 µM,,> 100 µM,,,> 100 µM,,> 100 µM,> 100 µM
COc1cc2ccc1-c1cc(ccc1O)CC1c3cc4c(cc3CCN1C)Oc1c(OC)cc3c(c1O4)C(C2)N(C)CC3 (centres undefined),,3.52 µM,,4.57 µM,,3.48 µM,,5.18 µM,,3.23 µM,,4.75 µM,,,,,24.7 µM,,3.74 µM,27 µM
CC(C)CNc1nc(N)[nH]c(=O)c1NC=O,,> 100 µM,,> 100 µM,,> 100 µM,,> 100 µM,,> 100 µM,,> 100 µM,,> 100 µM,,,> 100 µM,,> 100 µM,> 100 µM
O=C(c1cc(Br)ccc1O)c1cc(Br)ccc1O,,29.9 µM,,30.3 µM,,31.6 µM,,44.4 µM,,32.1 µM,,30.4 µM,,31.3 µM,,,33 µM,,29.9 µM,27.1 µM
Oc1cc(O)cc(/C=C/c2ccc(O)c(O)c2)c1,,51.7 µM,,> 100 µM,,> 100 µM,,24.3 µM,,60.5 µM,,> 93.8 µM,,> 56.1 µM,,,,,,50.3 µM
O=C(O)c1ccccn1,,> 100 µM,,> 100 µM,,,,> 100 µM,,> 100 µM,,> 100 µM,,> 100 µM,,,> 100 µM,,> 100 µM,> 100 µM
CN(C)c1ccc(C2CC(=O)C(C#N)=C(c3ccccc3)NN2C)cc1 (centres undefined),,7.59 µM,,,,> 100 µM,,,,36.9 µM,,> 100 µM,,,,,> 100 µM,,> 100 µM,> 100 µM
CN(C)[C@@H]1C(=O)C(C(=O)NCNCCCC(=O)O)=C(O)[C@@]2(O)C(=O)C3=C(O)c4c(O)cccc4[C@@](C)(O)[C@H]3C[C@@H]12,,,,> 100 µM,,,,> 100 µM,,> 100 µM,,> 100 µM,,,,,> 100 µM,,> 100 µM,> 100 µM
N=C(N)c1ccc(-c2ccc(-c3ccc(Cl)cn3)s2)cc1,,,,,1.68 µM,3.14 µM,,,,,,,,,1.27 µM,,,1.61 µM,2.96 µM,2.67 µM
CN(C)c1ccc2nc3c(C(=O)O)cc(=O)c(O)c-3oc2c1,,60 µM,,81 µM,,31.7 µM,,57.8 µM,,66 µM,,95.2 µM,,56.5 µM,,,47.5 µM,,> 100 µM,> 100 µM
Cc1ccc(C)c(/C(=N\N=C(N)N)C2CC2)c1,,> 100 µM,,> 100 µM,,> 100 µM,,,,47.9 µM,,> 100 µM,,> 100 µM,,,> 100 µM,,> 100 µM,> 100 µM
c1ccc2c[n+](CCCCCCCCCC[n+]3ccc4ccccc4c3)ccc2c1,,> 10 µM,,> 10 µM,,> 10 µM,,> 10 µM,,> 10 µM,,> 10 µM,,> 10 µM,,,> 10 µM,,> 10 µM,> 10 µM
CCN(CC)Cc1ccc2cccnc2c1O,,12.7 µM,,> 100 µM,,> 100 µM,,13.3 µM,,19.8 µM,,23.7 µM,,> 100 µM,,,33.1 µM,,> 100 µM,> 100 µM
NCS(=O)(=O)O,,> 100 µM,,> 100 µM,,> 100 µM,,> 100 µM,,> 100 µM,,> 100 µM,,> 100 µM,,,> 100 µM,,> 100 µM,> 100 µM
Cc1c2ccnc(-c3ccccc3)c2cc2c1[nH]c1ccccc12,,8.16 µM,,12.5 µM,,9.31 µM,,10.6 µM,,7.36 µM,,8.25 µM,,8.59 µM,,,,,,3.12 µM
Cc1ncc(CO)c(CN)c1O,,,,> 100 µM,,> 100 µM,,> 100 µM,,> 100 µM,,> 100 µM,,> 100 µM,,,> 100 µM,,> 100 µM,
COc1ccc(CNc2nc(NCc3ccc(OC)cc3)nc(NC(C)C)n2)cc1,,> 100 µM,,93.2 µM,,22.8 µM,,,,17 µM,,5.3 µM,,5.6 µM,,,70.4 µM,,59.1 µM,48.7 µM
O=C(CC1(O)C(=O)Nc2ccc(Br)cc21)c1ccc(C(=O)NCC2CCC3(CC2)OOC2(CCCCC2)OO3)cc1 (centres undefined),,,,,2.47 µM,6.63 µM,,,3.37 µM,30.2 µM,1.65 µM,4.47 µM,3.05 µM,26.5 µM,1.9 µM,3.71 µM,11.9 µM,2.02 µM,5.38 µM,4.46 µM
CC[C@H](Nc1nc(N)nc(N)c1Cl)c1nc2cccc(NCc3ccc(C(=O)NO)cc3)c2c(=O)n1-c1ccccc1,,,1.75 µM,3.78 µM,1.36 µM,4.4 µM,1.35 µM,> 100 µM,1.94 µM,4.43 µM,2.15 µM,5.92 µM,2.25 µM,7.2 µM,1.26 µM,2.02 µM,6.63 µM,1.98 µM,4.2 µM,2.81 µM
COc1cnc2c(c1)C(=O)c1c-2n(CCCN2CCNCC2)c(=O)c2cc(Cl)ccc12,0.291 µM,1.69 µM,,,,,,,0.0449 µM,1.29 µM,,,,,1.12 µM,,,0.181 µM,1.27 µM,13.7 µM
CCOC(=O)c1c2c(c(O)c3ccccc3c(O)n(-c3ccc(C)cc3)c1C)C(=O)C=CC2=O,,43.6 µM,,85.5 µM,,37.4 µM,,78.9 µM,,84.6 µM,,30.3 µM,,55.7 µM,,,57.2 µM,,38.4 µM,56.9 µM
